Source: paper PMC3092291 (2011)

Biological target: T1, IspH (LytB) (Aquifex aeolicus, UniProt O67625)
T1 sequence (O67625 1-289): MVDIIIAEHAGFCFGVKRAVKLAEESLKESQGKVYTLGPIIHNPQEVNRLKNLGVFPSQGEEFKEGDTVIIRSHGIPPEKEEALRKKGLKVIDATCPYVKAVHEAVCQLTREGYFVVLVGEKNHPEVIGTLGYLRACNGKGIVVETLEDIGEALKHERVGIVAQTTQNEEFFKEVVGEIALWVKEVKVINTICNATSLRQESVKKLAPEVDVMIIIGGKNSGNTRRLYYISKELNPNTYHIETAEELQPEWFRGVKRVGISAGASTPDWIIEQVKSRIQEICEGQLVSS
Test: HYSCORE/CW-EPR with […] and […]-labeled IspH
Format: biochemical

For BPH-293 [compound 7], the IC50 was 38 µM.
